Experimental data as given in patent US6699682B2, “Assay for inhibitors of fatty-acid amide hydrolase” (The Scripps Research Institute, priority 1995, dated 2004).

Experiments:
[1] = target: T1, recombinant rat FAAH (Rattus norvegicus, UniProt P97612); experiment: oleamide hydrolase activity of rat FAAH-transfected COS-7 cell extract and its inhibition (TLC); assay type: biochemical; conditions: versus untransfected and control transfected cells
T1 construct: expressed in transfected cells; host or cells: COS-7 cells, transient, pcDNA3; dounce-homogenised cell extract
T1 sequence (P97612 1-579): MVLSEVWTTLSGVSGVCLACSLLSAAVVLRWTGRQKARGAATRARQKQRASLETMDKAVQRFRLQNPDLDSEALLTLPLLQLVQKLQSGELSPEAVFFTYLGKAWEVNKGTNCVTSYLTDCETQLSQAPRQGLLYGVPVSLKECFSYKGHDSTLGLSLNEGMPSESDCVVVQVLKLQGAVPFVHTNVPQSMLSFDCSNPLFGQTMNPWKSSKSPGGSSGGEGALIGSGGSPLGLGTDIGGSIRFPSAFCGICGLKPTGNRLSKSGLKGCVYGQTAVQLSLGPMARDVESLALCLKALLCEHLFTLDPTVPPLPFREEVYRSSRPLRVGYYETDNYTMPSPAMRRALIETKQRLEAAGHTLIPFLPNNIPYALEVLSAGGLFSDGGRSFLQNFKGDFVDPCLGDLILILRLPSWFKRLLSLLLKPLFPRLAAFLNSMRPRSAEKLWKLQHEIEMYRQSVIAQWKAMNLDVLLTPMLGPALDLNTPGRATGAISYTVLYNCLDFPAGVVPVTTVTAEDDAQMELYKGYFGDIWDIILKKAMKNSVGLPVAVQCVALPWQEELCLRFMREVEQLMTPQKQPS
Procedure: The following thin layer chromatography (TLC) protocol is used for assaying cis-9,10 octadecenoamide hydrolysis activity, also referred to as fatty-acid amide hydrolase activity. Oleamide is first labeled with ^14C. To accomplish this, ^14C-Oleic acid (1-10 μM, Moravek Biochemicals, 5-50 μCi/μM) in CH2CL2 (200 μL, 0.005-0.05 M) at 0° C. was treated with excess oxalyl chloride and the reaction mixture was warmed to 25° C. for 6 hours. The reaction mixture was then concentrated under a constant stream of gaseous nitrogen and the remaining residue was cooled to 0° C. and treated with excess saturated aqueous ammonium hydroxide. After 5 minutes, the reaction mixture was partitioned between Et)Ac (1.5 mL) and 10% HCl (1.0 mL). The organic layer was then washed with water (1.0 mL) and concentrated under a constant stream of gaseous nitrogen to provide ^14C-oleamide in quantitative yield as judged by TLC (60% EtOAc in hexanes; oleamide Rf−0.2; oleic acid Rf−0.8). […]
While untransfected COS-7 cells contained negligible amounts of oleamide hydrolase activity, COS-7 cells transfected with the rat FAAH cDNA expressed high levels of oleamide hydrolase activity (FIG. 15A). The assay was performed as described in Section B where by TLC the conversion of oleamide to oleic acid was assessed. […]

[2] = system: male Sprague-Dawley rats; experiment: polysomnographic sleep recordings (EEG/EMG) in rats; assay type: in vivo, rat; conditions: 10 mg ip, recorded four hours
From the text: We have compared cis-9,10-octadecenoamide to vehicle and the synthetic analogs listed in FIG. 1 to estimate the structural specificity of its sleep-inducing potential. […] More particularly, male Sprague-Dawley rats (300 g at the time of surgery) were implanted under halothane anesthesia (2-3%) with a standard set of electrodes for sleep recordings. This included two screw electrodes placed in the parietal bone over the hippocampus to record the subjects electroencephalogram (EEG) and two wire electrodes inserted in the neck musculature to record postural tone through electromyographic activity (EMG). Rats were housed individually with at libitum access to food and water. The dark-light cycle was controlled (12:12, lights on a 10:00 p.m.). One week after the surgery, rats were habituated to the recording conditions for at least three days. Upon the completion of the habituation period, rats received 2 milliliter (ip) of either: vehicle (5% ethanol/saline solution), cis-9,10-octadecenoamide (10 mg), or oleic acid (10 mg). […] Sleep recordings were visually scored and four stages were determined: wakefulness, slow-wave-sleep 1 (SWS1), slow-wave-sleep 2 (SWS2), and rapid eye movement (REM) sleep.
These increases with respect to slow wave sleep (SWS) were at the expense of waking.

With CCCCCCCC/C=C\CCCCCCCC(N)=O [cis-9,10-octadecenoamide, Cis-9,10-octadecenoamide] the “conversion of labeled substrate by rat FAAH-transfected COS-7 cells (qualitative, TLC)” value [1] was “effective at converting labeled oleamide to oleic acid”, the “distribution of REM sleep” value [2] was “does not seem to be altered” and the “mean duration of the SWS individual periods compared to vehicle controls” value [2] was “increase”. The “total time of slow wave sleep (SWS) compared to vehicle controls” value [2] was “increase in the total time of slow wave sleep (SWS)”.
